From US5686426A, “Dicarboxymethylated glycolipid derivatives as cell adhesion inhibitors” (Bristol-Myers Squibb Company, priority 1994, dated 1997)

Key:
[1] = tested on: reverse passive Arthus reaction in rats; experiment: Reverse Passive Arthus Reaction in Rats (RPA); format: in vivo, Male Sprague Dawley rats; details: rat, single IV dose 3 mg, 4 hours
Source text: The reverse passive Arthus reaction in rats is a modification of the method by Mulligan et al., as described in J. Clin. Invest., (1991) 88: 1396-1406. This is an experimental model in which the interaction of antigen-antibody complexes and complement leads to a severe vasculitis that is associated with edema, induration, erythema and hemorrhage. The interaction between the antigen-antibody complexes and complement leads to a localized influx of neutrophils. These neutrophils release a variety of mediators that are associated with tissue damage and vascular permeability. The localized inflammatory reaction is measured using different techniques i.e., vascular permeability and neutrophil influx which is evaluated both biochemically and microscopically.
Male Sprague Dawley specific pathogen-free rats with jugular vein cannulae (280-320 g, Hill Top Labs, Pa.) are used in these studies. Animals are acclimated for at least 1 day and individually housed in stainless steel cages. The dorsal region of the rats is closely clipped 2 days prior to the experiments and divided into 4 sites on each side of the midline. Prior to all injections the rats are sedated with 0.4 ml per 300 gm rat of ketamine/rompun [1000 mg (10 ml) of ketamine HCL is mixed with 40 mg (2.0 ml) Rompun] administered IP and or inhalation anesthesia with metafane (methoxyflurane).
Bovin Serum Albumin (BSA) and rabbit polyclonal IgG rich in anti-BSA are purchased from Sigma Chemical Co. (St. Louis, Mo.). Radiolabelled ^125 I-BSA (spAct 1-5 μCi/μg) is purchased from Dupont NEN (Boston, Mass.).
Each rat is administered intradermal (ID) injection of (0.4 mg, 0.6 mg and 0.8 mg) anti-BSA in a volume of 100 μl per injection in normal saline. The ID injections are randomized near the mid dorsal region on both sides of the back bone. Immediately after the ID injections of the anti-BSA, the rats are administered intravenous (IV) injections of BSA (10 mg in 1.0 ml) in normal saline containing ^125 I labeled BSA (1 μCi/ml BSA or 5.0 μCi/kg body wt) for quantification of dermal vascular injury. Anti-inflammatory agents such as inhibitors of adhesion molecules of the present invention are administered IV at a single dose of 3 mg immediately after BSA. Four (4) hours after the IV injection of BSA, the rats are anesthetized with metafane and 2 to 3 ml of blood is withdrawn via the cannula into an anticoagulant containing (EDTA or Heparin) tube and plasma separated and saved for neutrophil and albumin quantitation. The rats are killed and the skin surrounding the injection site (15 mm diameter) is punched out and weighed. The skin samples and a fixed volume of plasma (0.1 to 1.0 ml) is analyzed in a gamma-counter for ^125 I content. Skin samples from the contralateral side are processed and analyzed for myeloperoxidase activity (MPO) as a measure of neutrophil accumulation. As needed, samples are also processed for histological evaluation of the reacted sites.
Vascular Permeability (VP)
The calculation of the plasma protein exudation into skin is made by determining the radioactivity in the tissue and relating this to the level of radioactive albumin in the blood at the time of sacrifice. […] [formula]
Percent inhibition of the test compound at 3 mg was determined as follows: [formula] Myeloperoxidase (MPO)
MPO is located in the azurophil granules of polymorphonuclear leukocytes (PMN). Because of its abundance in these cells (5% dry weight), this enzyme is used as a marker for tissue neutrophil content. For tissue MPO content, the method of Bradley, et al., was used as described in J. Invest. Dermatol. (1982) 78: 206-209. Biopsies from each treatment group were placed in plastic tubes (15×100 mm) containing 10 ml of 0.5% hexadecyltrimethylammonium bromide (HTAB)in 0.05M potassium phosphate buffer pH 6.0. The tissue was then homogenized with a Brinkmann Polytron homogenizer (10s). […]

[2] = tested on: HL-60 cells / activated platelets (P-selectin); experiment: HL-60 Platelet Cell Adhesion Assay; format: cell-based; details: HL-60 cell adhesion to thrombin-activated human platelets
Experimental: HL-60 cells, obtained from American Type Culture Collection, were cultured in RPMI 1640 medium (GIBCO) supplemented with 20% fetal calf serum (Sigma) and 50 μg/ml gentamicin (GIBCO). Cells in log phase growth were harvested, washed and resuspended in Tyrodes buffer containing 5 mM HEPES and 0.2% bovine serum albumin and were fixed with 1% buffered formalin.
Blood from normal human donors was anticoagulated with citrate, layered over 1-Step Platelets (Accurate Chemical Co.), and centrifuged at 350 g for 20 minutes at room temperature. The platelet band was collected, diluted in 2 volumes of Tyrode's Buffer with 5 mM HEPES, 10 mM EDTA, and 0.2% BSA (pH 7.4) (THEB) and centrifuged at 600 g for 10 minutes. The platelet pellet was resuspended in THEB and incubated at room temperature for 1 hour. Calcein-acetoxy methylester (Calcein-Am, Molecular Probes) was added to the platelets at a final concentration of 10 μM and incubated for 10 minutes at 37° C. to label the platelets. Without washing, the platelets were counted on a Coulter counter model ZM, and the concentration was adjusted to 1×10^7 /ml. The platelets were activated with 2 U/ml of human thrombin for 10 minutes in Tyrode's containing 2 mM CaCl2, 5 mM HEPES, and 0.2% BSA (pH 7.4) (THB) at 37° and immediately fixed with 1% buffered formalin for 1 to 2 hours at room temperature. A small aliquot of labeled platelets was removed before activation and designated as non-activated.
Both platelets and HL-60 were washed in a ≥5 fold excess volume of Hanks Balanced Salt Solution (HBSS), resuspended in THB and counted. Cell concentrations were adjusted to 2×10^7 /ml for platelets and 4×10^6 /ml for HL-60, this ratio determined to be optimum for platelet: HL-60 cell adhesion. Compounds were incubated with 50 μl of platelets for 30 minutes at room temperature before addition of 50 μl of HL-60. This ratio of 5:1 platelets to HL-60 was incubated for 30 minutes at room temperature before addition of 0.2 ml of THB to increase the volume so the samples could be analyzed on a FACScan cytometer (Becton Dickinson). Non-activated platelets, and activated platelets with 10 mM EDTA were included as controls. Data were collected within a region set for the forward scatter channel corresponding to HL-60 size events.
The percent HL-60 cells which contained bound platelets was determined for each test condition. The inhibition of binding was determined by comparison to standards which were treated with vehicle alone (representing 0% inhibition) and standards whose specific binding had been blocked by the use of EDTA (representing 100% inhibition), by the following formula: [formula] where x=HL-60 cells containing bound platelets in the presence of the compound;
b=HL-60 cells containing bound platelets in the presence of EDTA;
a=HL-60 cells containing bound platelets in presence of compound vehicle;
z=% inhibition of platelet: HL-60 cell adhesion

P-selectin [3] = biological target: T1, P-selectin (Homo sapiens, UniProt P16109); details: literature; cited from earlier work
T1 sequence (P16109 42-830): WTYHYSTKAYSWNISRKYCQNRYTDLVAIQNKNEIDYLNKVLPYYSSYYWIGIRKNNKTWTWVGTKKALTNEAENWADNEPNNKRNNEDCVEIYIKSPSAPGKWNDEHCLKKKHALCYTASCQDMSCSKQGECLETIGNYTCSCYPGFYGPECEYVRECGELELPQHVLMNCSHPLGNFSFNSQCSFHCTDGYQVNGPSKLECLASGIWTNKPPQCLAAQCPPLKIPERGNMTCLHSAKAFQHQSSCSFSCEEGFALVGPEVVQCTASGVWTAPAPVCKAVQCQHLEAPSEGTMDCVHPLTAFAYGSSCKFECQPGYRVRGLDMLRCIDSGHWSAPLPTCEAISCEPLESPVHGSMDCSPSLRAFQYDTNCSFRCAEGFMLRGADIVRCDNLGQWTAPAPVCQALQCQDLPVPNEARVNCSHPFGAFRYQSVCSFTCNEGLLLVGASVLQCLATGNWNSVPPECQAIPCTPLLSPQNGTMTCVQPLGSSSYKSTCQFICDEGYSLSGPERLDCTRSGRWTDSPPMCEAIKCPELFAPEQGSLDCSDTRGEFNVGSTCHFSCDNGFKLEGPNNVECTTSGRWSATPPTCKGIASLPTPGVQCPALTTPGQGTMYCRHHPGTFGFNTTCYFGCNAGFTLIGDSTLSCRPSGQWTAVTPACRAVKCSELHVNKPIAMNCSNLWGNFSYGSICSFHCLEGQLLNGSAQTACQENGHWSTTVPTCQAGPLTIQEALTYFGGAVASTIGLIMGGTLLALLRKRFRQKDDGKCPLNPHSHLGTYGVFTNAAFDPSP

P-selectin [4] = biological target: T1, P-selectin; details: anionic polymers; literature; cited from earlier work

CCCCCCCCCCCCC/C=C/[C@@H](OC(=O)c1ccccc1)[C@H](CO[C@H]1O[C@H](COC(=O)c2ccccc2)[C@H](OCC(=O)O)[C@H](OCC(=O)O)[C@H]1OC(=O)c1ccccc1)NC(=O)CCCCCCCCCCCCCCC [Example 10, (2S,3R,4E)-2-Hexadecanoylamino-3-benzoyloxy-1-[3,4-di-O-carboxy-methyl-2,6-di-O-benzoyl-α-D-galactopyranosyloxy]-4-octadecene]
RPA VP % Inhib. (vascular permeability) ([1]; 125I-BSA plasma extravasation into skin): 54%
RPA MPO % Inhib. (myeloperoxidase, neutrophil accumulation) ([1]; skin MPO activity): 65%
IC50 [2]: > 100 µM

CC(=O)N[C@H]1C(O)O[C@H](CO)[C@@H](O[C@@H]2O[C@H](CO)[C@H](O)[C@H](O)[C@H]2O)[C@@H]1O[C@@H]1O[C@@H](C)[C@@H](O)[C@@H](O)[C@@H]1O (stereo partly shown) [Le^x]
binding to P-selectin (in words) (P-selectin [3]): shown to bind

dextran sulfate
inhibition of P-selectin mediated adhesion (in words) (P-selectin [4]): shown to inhibit P-selectin mediated adhesion

fucoidan
inhibition of P-selectin mediated adhesion (in words) (P-selectin [4]): shown to inhibit P-selectin mediated adhesion

heparin
inhibition of P-selectin mediated adhesion (in words) (P-selectin [4]): shown to inhibit P-selectin mediated adhesion
